In patent US9914722B2, “Compounds for treating spinal muscular atrophy” (PTC Therapeutics Inc., priority 2012, dated 2018):

How the values were obtained:
[1] = tested on: full length SMN2 minigene mRNA containing SMN2 exon 7 (SMN2-A minigene); test: SMN2 minigene mRNA splicing RT-qPCR assay in cultured cells; type: cell-based, human; conditions: Homo sapiens, HEK293-H; HEK293H cells stably transfected with SMN2-A minigene, 24 hours, 7-point concentration curve; concentration giving 1.5-fold SMN2 full length mRNA vs vehicle; read-out: EC1.5x for production of full length SMN2 mRNA
Description: SMN2 Minigene mRNA Splicing RT-qPCR Assay in Cultured Cells
The reverse transcription-quantitative PCR-based (RT-qPCR) assay is used to quantify the level of the full length SMN2 minigene mRNA containing SMN2 exon 7 in a HEK293H cell line stably transfected with said minigene and treated with a test compound.
Protocol. HEK293H cells stably transfected with the SMN2-A minigene construct described above (10,000 cells/well) are seeded in 200 μL of cell culture medium (DMEM plus 10% FBS, with 200 μg/mL hygromycin) in 96-well flat-bottom plates and the plate is immediately swirled to ensure proper dispersal of cells, forming an even monolayer of cells. Cells are allowed to attach for at least 4-6 hours. Test compounds are serially diluted 3.16-fold in 100% DMSO to generate a 7-point concentration curve. A solution of test compound (1 μL, 200× in DMSO) is added to each cell-containing well and the plate is incubated for 24 hours in a cell culture incubator (37° C., 5% CO2, 100% relative humidity). Two replicates are prepared for each test compound concentration. The cells are then lysed in Cells-To-Ct lysis buffer and the lysate is stored at −80° C.
Primer SMN Forward A (SEQ ID NO. 1) hybridizes to a nucleotide sequence in exon 7 (nucleotide 22 to nucleotide 40), primer SMN Reverse A (SEQ ID NO. 2) hybridizes to a nucleotide sequence in the coding sequence of Firefly luciferase, SMN Probe A (SEQ ID NO. 3) hybridizes to a nucleotide sequence in exon 7 (nucleotide 50 to nucleotide 54) and exon 8 (nucleotide 1 to nucleotide 21). The combination of these three oligonucleotides detects only SMN1 or SMN2 minigenes (RT-qPCR) and will not detect endogenous SMN1 or SMN2 genes.
The SMN forward and reverse primers are used at final concentrations of 0.4 μM. The SMN probe is used at a final concentration of 0.15 μM. The GAPDH primers are used at final concentrations of 0.2 μM and the probe at 0.15 μM.
The SMN2-minigene GAPDH mix (15 μL total volume) is prepared by combining 7.5 μL of 2×RT-PCR buffer, 0.4 μL of 25×RT-PCR enzyme mix, 0.75 μL of 20×GAPDH primer-probe mix, 4.0075 μL of water, 2 μL of 10-fold diluted cell lysate, 0.06 μL of 100 μM SMN forward primer, 0.06 μL of 100 μM SMN reverse primer, and 0.225 μL of 100 μM SMN probe.
PCR is carried out at the following temperatures for the indicated time: Step 1: 48° C. (15 min); Step 2: 95° C. (10 min); Step 3: 95° C. (15 sec); Step 4: 60° C. (1 min); then repeat Steps 3 and 4 for a total of 40 cycles.
Each reaction mixture contains both SMN2-A minigene and GAPDH primers/probe sets (multiplex design), allowing simultaneous measurement of the levels of two transcripts.
Two SMN spliced products are generated from the SMN2 minigene. The first spliced product containing exon 7, corresponding to SMN2 full length mRNA, is referred to herein using the term “SMN2 minigene FL.” The second spliced product lacking exon 7 is referred to herein using the term “SMN2 minigene Δ7.”
The increase of SMN2 minigene FL mRNA relative to that in cells treated with vehicle control is determined from real-time PCR data using a modified ΔΔCt method (as described in Livak and Schmittgen, Methods, 2001, 25:402-8). The amplification efficiency (E) is calculated from the slope of the amplification curve for SMN2 minigene FL and GAPDH mRNA individually. The abundance of SMN2 minigene FL and GAPDH mRNA are then calculated as (1+E)^−Ct, where Ct is the threshold value for each amplicon. The abundance of SMN2 minigene FL is normalized to GAPDH abundance. The normalized SMN2 minigene FL abundance from test compound-treated samples is then divided by normalized SMN2 minigene FL abundance from vehicle-treated cells to determine the level of SMN2 FL mRNA relative to vehicle control. […]

[2] = tested on: Smn protein; test: Smn protein assay (Smn HTRF) in cultured cells; type: cell-based, human; conditions: Homo sapiens, Fibroblast, GM03813 SMA Type 1 patient fibroblasts, 48 hours, HTRF; for maximal fold induction: 7-point concentration data, relative to vehicle, read-out: maximum fold (Fold) increase of Smn protein; for EC (1.5-fold): concentration producing 1.5 times Smn protein vs DMSO vehicle, read-out: EC1.5x for Smn protein expression
Description: Smn Protein Assay in Cultured Cells
The Smn HTRF (homogeneous time resolved fluorescence) assay is used to quantify the level of Smn protein in SMA patient fibroblast cells treated with test compounds.
Protocol. Cells are thawed and cultured in DMEM-10% FBS for 72 hours. Cells are trypsinized, counted and re-suspended to a concentration of 25,000 cells/mL in DMEM-10% FBS. The cell suspension is plated at 5,000 cells per well in a 96 well microtiter plate and incubated for 3 to 5 hours. […] Test compounds are serially diluted 3.16-fold in 100% DMSO to generate a 7-point concentration curve. 1 μL of test compound solution is transferred to cell-containing wells and cells are incubated for 48 hours in a cell culture incubator (37° C., 5% CO2, 100% relateive humidity). Triplicate samples are set up for each test compound concentration. After 48 hours, the supernatant is removed from the wells and 25 μL of the RIPA lysis buffer, containing protease inhibitors, is added to the wells and incubated with shaking at room temperature for 1 hour. 25 μL of the diluent is added and then 35 μL of the resulting lysate is transferred to a 384-well plate, where each well contains 5 μL of the antibody solution (1:100 dilution of anti-SMN d2 and anti-SMN kryptate in SMN reconstitution buffer). The plate is centrifuged for 1 minute to bring the solution to the bottom of the wells, then incubated overnight at room temperature. Fluorescence for each well of the plate at 665 nm and 620 nm is measured on an EnVision multilabel plate reader (Perkin-Elmer).
The normalized fluorescence signal is calculated for each sample, Blank and vehicle control well by dividing the signal at 665 nm by the signal at 620 nm. Normalizing the signal accounts for possible fluorescence quenching due to the matrix effect of the lysate. The AF value (a measurement of Smn protein abundance as a percent value) for each sample well is calculated by subtracting the normalized average fluorescence for the Blank control wells from the normalized fluorescence for each sample well, then dividing this difference by the normalized average fluorescence for the Blank control wells and multiplying the resulting value by 100. The ΔF value for each sample well represents the Smn protein abundance from test compound-treated samples. The ΔF value for each sample well is divided by the ΔF value for the vehicle control wells to calculate the fold increase in Smn protein abundance relative to the vehicle control.
For compounds of Formula (I) or a form thereof disclosed herein, Table 9 provides the EC1.5x for Smn protein expression that was obtained from the 7-point concentration data generated for each test compound according to the procedure of Biological Example 7. The term “EC1.5x for Smn protein expression” is defined as that concentration of test compound that is effective in producing 1.5 times the amount of Smn protein in an SMA patient fibroblast cell compared to the amount produced from the DMSO vehicle control. An EC1.5x for Smn protein expression between >3 μM and ≦10 μM is indicated by one star (*), an EC1.5x between >1 μM and ≦3 μM is indicated by two stars (**), an EC1.5x between >0.3 μM and ≦1 μM is indicated by three stars (***) and an EC1.5x≦0.3 μM is indicated by four stars (****).
For compounds of Formula (I) or a form thereof disclosed herein, Table 10 provides the maximum fold (Fold) increase of Smn protein that was obtained from the 7-point concentration data generated for each test compound according to the procedure of Biological Example 7. A maximum fold increase ≦1.2 is indicated by one star (*), a fold increase between >1.2 and ≦1.35 is indicated by two stars (**), a fold increase between >1.35 and ≦1.5 is indicated by three stars (***), a fold increase between >1.5 and ≦1.65 is indicated by four stars (****) and a fold increase >1.65 is indicated by five stars (*****).

| SMILES | melting point | EC (1.5-fold) [1] | maximal fold induction [2] | EC (1.5-fold) [2] |
| --- | --- | --- | --- | --- |
| Cc1ccn2cc(-c3cc(=O)c4cc(N5C[C@@H](C)N[C@@H](C)C5)ccc4o3)nc2c1 [Cpd 30, 6-[(3R,5S)-3,5-dimethylpiperazin-1-yl]-2-(7-methylimidazo[1,2-a]pyridin-2-yl)-4H-chromen-4-one] | 102 to 104 °C | 1 to 3 µM | 1.2 to 1.35 |  |
| Cc1cn2cc(-c3cc(=O)c4cc(N5CCN[C@@H](C)C5)ccc4o3)nc2cn1 [Cpd 73, 2-(6-methylimidazo[1,2-a]pyrazin-2-yl)-6-[(3S)-3-methylpiperazin-1-yl]-4H-chromen-4-one] | 212 to 216 °C | ≤ 0.1 µM | > 1.65 | ≤ 0.3 µM |
| O=c1cc(-c2cccc(C(F)(F)F)c2)oc2ccc(N3CCNCC3)cc12 [Cpd 67, 6-(piperazin-1-yl)-2-[3-(trifluoromethyl)phenyl]-4H-chromen-4-one] | 174 to 176 °C | 0.1 to 0.3 µM | 1.5 to 1.65 | 0.3 to 1 µM |
| CN1CCCN(c2ccc3oc(-c4cn5ccccc5n4)cc(=O)c3c2)CC1 [Cpd 19, 2-(imidazo[1,2-a]pyridin-2-yl)-6-(4-methyl-1,4-diazepan-1-yl)-4H-chromen-4-one] | 188 to 190 °C | 3 to 30 µM | > 1.65 | 1 to 3 µM |
| COc1ccc(-c2cc(=O)c3cc(N4C[C@@H](C)N[C@@H](C)C4)ccc3o2)cc1C [Cpd 53, 6-[(3R,5S)-3,5-dimethylpiperazin-1-yl]-2-(4-methoxy-3-methylphenyl)-4H-chromen-4-one] | 186 to 188 °C | 0.3 to 1 µM | 1.2 to 1.35 |  |
| COc1cc(F)c(-c2cc(=O)c3cc(N4C[C@@H](C)N[C@@H](C)C4)ccc3o2)cc1OC [Cpd 47, 6-[(3R,5S)-3,5-dimethylpiperazin-1-yl]-2-(2-fluoro-4,5-dimethoxyphenyl)-4H-chromen-4-one] | 164 to 166 °C | 1 to 3 µM | 1.5 to 1.65 | 1 to 3 µM |

Further lines, with some results ahead:

| melting point | SMILES | EC (1.5-fold) [1] | maximal fold induction [2] | EC (1.5-fold) [2] |
| --- | --- | --- | --- | --- |
| 179 to 181 °C | COc1cc(F)c(-c2cc(=O)c3cc(N4CCN[C@@H](C)C4)ccc3o2)cc1OC [Cpd 46, 2-(2-fluoro-4,5-dimethoxyphenyl)-6-[(3S)-3-methylpiperazin-1-yl]-4H-chromen-4-one] | 0.3 to 1 µM | 1.5 to 1.65 | 1 to 3 µM |
| 228 to 232 °C | Cc1ccn2cc(-c3cc(=O)c4cc(N5CCNCC5)ccc4o3)nc2c1 [Cpd 28, 2-(7-methylimidazo[1,2-a]pyridin-2-yl)-6-(piperazin-1-yl)-4H-chromen-4-one] | 1 to 3 µM | > 1.65 | 3 to 10 µM |
| 165 to 170 °C | COc1ccc(-c2cc(=O)c3cc(N4CCNCC4)ccc3o2)cn1 [Cpd 55, 2-(6-methoxypyridin-3-yl)-6-(piperazin-1-yl)-4H-chromen-4-one] | 0.3 to 1 µM | 1.2 to 1.35 |  |
| 215 to 220 °C | CN1CCN(c2ccc3oc(-c4nc5ccccc5s4)cc(=O)c3c2)CC1 [Cpd 35, 2-(1,3-benzothiazol-2-yl)-6-(4-methylpiperazin-1-yl)-4H-chromen-4-one] | 1 to 3 µM | 1.2 to 1.35 |  |
| 104 to 106 °C | COc1ccc(-c2cc(=O)c3cc(N4CCNCC4)ccc3o2)cc1OC(F)(F)F [Cpd 68, 2-[4-methoxy-3-(trifluoromethoxy)phenyl]-6-(piperazin-1-yl)-4H-chromen-4-one] | 0.3 to 1 µM | ≤ 1.2 |  |
| 108 to 110 °C | COc1ccc(-c2cc(=O)c3cc(N4CCNC(C)(C)C4)ccc3o2)cc1OC [Cpd 27, 2-(3,4-dimethoxyphenyl)-6-(3,3-dimethylpiperazin-1-yl)-4H-chromen-4-one] | 0.3 to 1 µM | > 1.65 | 1 to 3 µM |
| 250 to 254 °C | O=c1cc(-c2nc3ccccc3s2)oc2ccc(N3CCNCC3)cc12 [Cpd 32, 2-(1,3-benzothiazol-2-yl)-6-(piperazin-1-yl)-4H-chromen-4-one] | 1 to 3 µM | 1.2 to 1.35 |  |
